Assay results: ChEMBL document CHEMBL5244211, “Current anti-diabetic agents and their molecular targets: A review” (Eur J Med Chem, 2018)

How the values were obtained:
[1] = biological target: T1, Tyrosine-protein phosphatase non-receptor type 1 (Homo sapiens, UniProt P18031); test: Inhibition of PTP1B (unknown origin)
T1 sequence (P18031 whole entry): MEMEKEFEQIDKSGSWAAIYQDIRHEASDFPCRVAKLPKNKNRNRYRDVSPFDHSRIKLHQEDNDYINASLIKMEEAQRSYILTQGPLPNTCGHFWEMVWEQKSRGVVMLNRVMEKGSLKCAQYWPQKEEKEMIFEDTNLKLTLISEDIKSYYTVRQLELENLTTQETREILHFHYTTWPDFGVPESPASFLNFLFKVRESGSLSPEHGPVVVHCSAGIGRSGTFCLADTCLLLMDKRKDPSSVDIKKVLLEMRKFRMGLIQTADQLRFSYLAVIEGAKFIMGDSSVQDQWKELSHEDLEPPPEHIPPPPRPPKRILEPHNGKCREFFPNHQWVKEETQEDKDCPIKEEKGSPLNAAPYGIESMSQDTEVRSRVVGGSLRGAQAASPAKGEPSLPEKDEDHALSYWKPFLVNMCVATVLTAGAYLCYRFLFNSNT

[2] = Inhibition of Calf ALR2 in presence of NADPH by UV spectrophotometric analysis; set-up: species or system Bos taurus
[3] = species on record: Homo sapiens; test: Selectivity ratio of IC50 for inhibition of TC-PTP (unknown origin) to IC50 for inhibition of PTP1B (unknown origin)
[4] = biological target: T1, Tyrosine-protein phosphatase non-receptor type 1; test: Inhibition of PTP1B (unknown origin) using pNPP as substrate for 2 mins by spectroscopic analysis
[5] = biological target: T1, Tyrosine-protein phosphatase non-receptor type 1; test: Competitive inhibition of PTP1B (unknown origin) assessed as inhibition constant using pNPP as substrate by Michaelis-Menten based analysis
[6] = biological target: Alpha-glucosidase (Saccharomyces cerevisiae S288c, UniProt P53341+P38158+P07265); test: Inhibition of Saccharomyces cerevisiae alpha-glucosidase using p-nitrophenol-alpha-D-glucopyranoside as substrate incubated for 15 mins by spectrophotometric method; type: protein assay
[7] = biological target: T2, Alpha-glucosidase (Saccharomyces cerevisiae S288c) (UniProt P53341+P38158+P07265); test: Inhibition of Saccharomyces cerevisiae alpha-glucosidase assessed as dissociation rate constant (k2) using p-nitrophenol-alpha-D-glucopyranoside as substrate by Lineweaver-Burk plot analysis; type: protein assay
[8] = biological target: T2, Alpha-glucosidase (Saccharomyces cerevisiae S288c); test: Inhibition of Saccharomyces cerevisiae alpha-glucosidase assessed as dissociation rate constant (k1) using p-nitrophenol-alpha-D-glucopyranoside as substrate by Lineweaver-Burk plot analysis; type: protein assay
[9] = Inhibition of calf lens ALR2 using glyceraldehyde as substrate incubated for 5 mins in presence of NADPH by UV-spectrophotometric analysis; type: tissue-based, Bos taurus
[10] = biological target: T3, Glucose-dependent insulinotropic receptor (Homo sapiens, UniProt Q8TDV5); test: Agonist activity at human GPR119 expressed in HEK293S cells assessed as increase in intracellular cAMP level incubated for 45 mins by HTRF analysis; type: cell-based
T3 sequence (Q8TDV5 whole entry): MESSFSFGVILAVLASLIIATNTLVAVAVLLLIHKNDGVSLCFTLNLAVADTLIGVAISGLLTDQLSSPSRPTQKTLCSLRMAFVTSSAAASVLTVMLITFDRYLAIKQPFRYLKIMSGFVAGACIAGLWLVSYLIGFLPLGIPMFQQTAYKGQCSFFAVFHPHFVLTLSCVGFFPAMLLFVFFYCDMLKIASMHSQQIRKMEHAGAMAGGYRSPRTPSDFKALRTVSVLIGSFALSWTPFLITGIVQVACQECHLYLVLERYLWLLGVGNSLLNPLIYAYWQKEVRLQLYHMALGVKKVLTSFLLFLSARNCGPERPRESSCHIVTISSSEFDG

[11] = biological target: T4, Dipeptidyl peptidase 4 (Homo sapiens, UniProt P27487); test: Inhibition of human recombinant DPP4 using H-Gly-Pro-AMC as substrate incubated for 10 mins by microplate reader analysis
T4 sequence (P27487 whole entry): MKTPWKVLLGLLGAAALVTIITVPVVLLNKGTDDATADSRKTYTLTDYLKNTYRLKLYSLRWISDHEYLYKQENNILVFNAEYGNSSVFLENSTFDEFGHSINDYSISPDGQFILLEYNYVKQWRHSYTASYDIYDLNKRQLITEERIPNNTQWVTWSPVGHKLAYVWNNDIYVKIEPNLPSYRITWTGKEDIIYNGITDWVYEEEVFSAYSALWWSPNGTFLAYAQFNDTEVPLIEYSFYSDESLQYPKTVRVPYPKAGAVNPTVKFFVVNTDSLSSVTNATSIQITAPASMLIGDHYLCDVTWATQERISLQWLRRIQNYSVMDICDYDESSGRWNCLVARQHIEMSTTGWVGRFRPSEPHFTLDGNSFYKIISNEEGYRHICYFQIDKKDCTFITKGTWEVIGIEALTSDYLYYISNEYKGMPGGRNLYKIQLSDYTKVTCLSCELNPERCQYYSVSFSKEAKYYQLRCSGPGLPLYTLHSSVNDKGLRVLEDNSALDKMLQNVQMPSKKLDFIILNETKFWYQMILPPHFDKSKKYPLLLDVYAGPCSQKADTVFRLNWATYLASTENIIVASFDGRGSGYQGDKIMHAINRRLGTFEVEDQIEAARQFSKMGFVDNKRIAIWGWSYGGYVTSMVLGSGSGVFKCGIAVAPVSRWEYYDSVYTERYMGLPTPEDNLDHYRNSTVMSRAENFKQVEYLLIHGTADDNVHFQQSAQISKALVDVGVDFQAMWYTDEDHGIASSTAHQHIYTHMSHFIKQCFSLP

[12] = biological target: T3, Glucose-dependent insulinotropic receptor; test: Agonist activity at human GPR119 expressed in CHO-K1 cells assessed as increase in intracellular cAMP level incubated for 5 mins by fluorescence analysis; type: cell-based
[13] = biological target: T4, Dipeptidyl peptidase 4; test: Inhibition of DPP4 (unknown origin)
[14] = species on record: Homo sapiens; test: Selectivity ratio of IC50 for inhibition of PTP1B (unknown origin) to IC50 for inhibition of TC-PTP (unknown origin)
[15] = biological target: T5, Tyrosine-protein phosphatase non-receptor type 2 (Homo sapiens, UniProt P17706); test: Inhibition of TC-PTP (unknown origin) using pNPP as substrate incubated for 5 mins by absorbance based analysis
T5 sequence (P17706 whole entry): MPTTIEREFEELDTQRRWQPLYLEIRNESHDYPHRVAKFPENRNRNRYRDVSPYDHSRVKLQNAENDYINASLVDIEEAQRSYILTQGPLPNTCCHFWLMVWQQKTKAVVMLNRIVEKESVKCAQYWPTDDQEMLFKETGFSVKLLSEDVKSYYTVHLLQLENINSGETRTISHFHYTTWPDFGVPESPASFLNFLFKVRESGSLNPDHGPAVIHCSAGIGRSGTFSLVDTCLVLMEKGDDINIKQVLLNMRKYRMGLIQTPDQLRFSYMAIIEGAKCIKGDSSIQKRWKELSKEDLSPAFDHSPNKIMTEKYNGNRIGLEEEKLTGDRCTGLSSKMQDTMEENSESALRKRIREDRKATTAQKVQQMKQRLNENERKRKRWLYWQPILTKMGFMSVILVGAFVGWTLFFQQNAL

[16] = Inhibition of bovine kidney ALR1 in presence of NADPH by UV spectrophotometric analysis; type: tissue-based, Bos taurus
[17] = biological target: T6, Free fatty acid receptor 4 (Mus musculus) (UniProt Q7TMA4); test: In vivo agonist activity at GPR120 in C57BL/6 mouse assessed as reduction in glucose AUC levels at 30 mg/kg,po and measured upto 120 mins by OGTT test; type: functional, organism-based; set-up: scale not given: the % may be the effect or the level left
T6 sequence (whole entry): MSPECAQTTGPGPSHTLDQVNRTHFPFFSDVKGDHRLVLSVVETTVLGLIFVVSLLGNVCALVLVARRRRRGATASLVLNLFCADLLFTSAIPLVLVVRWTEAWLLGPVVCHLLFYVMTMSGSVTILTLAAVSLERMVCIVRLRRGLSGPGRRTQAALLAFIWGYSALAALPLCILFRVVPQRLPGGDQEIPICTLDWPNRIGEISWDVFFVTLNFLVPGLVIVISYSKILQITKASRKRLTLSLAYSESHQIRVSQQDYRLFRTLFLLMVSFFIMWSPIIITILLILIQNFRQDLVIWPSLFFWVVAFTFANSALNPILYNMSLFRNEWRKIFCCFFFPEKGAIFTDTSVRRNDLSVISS

[18] = biological target: T7, Free fatty acid receptor 4 (Homo sapiens, UniProt Q5NUL3); test: Agonist activity at human GPR120 expressed in CHO cells assessed as intracellular phosphorylated ERK incubated for 16 to 18 hrs by AlphaScreen SureFire assay; type: cell-based
T7 sequence (Q5NUL3 whole entry): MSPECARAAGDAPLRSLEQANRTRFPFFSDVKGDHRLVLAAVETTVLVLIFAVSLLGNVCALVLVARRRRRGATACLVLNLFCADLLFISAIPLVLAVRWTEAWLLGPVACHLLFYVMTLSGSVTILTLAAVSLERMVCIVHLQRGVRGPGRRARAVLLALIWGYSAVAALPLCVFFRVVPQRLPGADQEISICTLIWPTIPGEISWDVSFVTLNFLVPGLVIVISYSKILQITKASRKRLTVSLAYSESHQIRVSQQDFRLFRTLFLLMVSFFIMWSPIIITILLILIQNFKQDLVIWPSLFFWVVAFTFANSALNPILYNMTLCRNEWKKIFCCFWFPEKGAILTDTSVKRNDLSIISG

[19] = biological target: T4, Dipeptidyl peptidase 4; test: Inhibition of DPP4 (unknown origin) using Gly-Pro-AMC as substrate incubated for 20 mins by spectroscopic analysis
[20] = biological target: T5, Tyrosine-protein phosphatase non-receptor type 2; test: Inhibition of TC-PTP (unknown origin)
[21] = biological target: Free fatty acid receptor 1 (Homo sapiens, UniProt O14842); test: Agonist activity at human GPR40 expressed in HEK293 cells incubated for 18 to 24 hrs by HTRF assay; type: cell-based
Free fatty acid receptor 1, sequence (O14842 whole entry): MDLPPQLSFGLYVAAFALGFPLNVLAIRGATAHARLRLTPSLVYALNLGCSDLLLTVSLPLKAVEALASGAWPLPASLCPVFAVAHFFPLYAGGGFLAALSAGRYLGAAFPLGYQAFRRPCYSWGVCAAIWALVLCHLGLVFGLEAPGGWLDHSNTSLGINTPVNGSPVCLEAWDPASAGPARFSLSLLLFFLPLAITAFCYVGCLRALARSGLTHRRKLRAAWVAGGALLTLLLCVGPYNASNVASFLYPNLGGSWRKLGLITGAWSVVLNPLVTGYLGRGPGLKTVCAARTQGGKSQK

[22] = biological target: T8, Fructose-1,6-bisphosphatase 1 (Homo sapiens, UniProt P09467); test: Inhibition of FBPase (unknown origin)
T8 sequence (P09467 whole entry): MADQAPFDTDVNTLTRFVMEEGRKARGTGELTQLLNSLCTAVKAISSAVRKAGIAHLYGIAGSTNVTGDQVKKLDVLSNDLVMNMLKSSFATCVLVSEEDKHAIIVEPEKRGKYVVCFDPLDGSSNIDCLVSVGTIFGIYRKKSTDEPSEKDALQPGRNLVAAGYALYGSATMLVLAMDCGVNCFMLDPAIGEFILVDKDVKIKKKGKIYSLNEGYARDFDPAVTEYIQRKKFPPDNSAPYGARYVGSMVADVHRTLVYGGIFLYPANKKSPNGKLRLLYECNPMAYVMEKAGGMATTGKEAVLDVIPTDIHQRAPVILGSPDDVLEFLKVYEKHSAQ

## Oc1cc(Cc2cc(O)c(Br)c(Br)c2Br)c(Br)c(Br)c1O
[1]
  IC50: 2.4 µM

## CC1=C(CC(=O)O)c2cc(F)ccc2/C1=C\c1ccc([S+](C)[O-])cc1 (stereo not given)
[2]
  IC50: 0.293 µM

## C[C@H](CCC(=O)O)[C@H]1CCC2C3CC=C4C(C)(C)c5c(cnn5-c5ccc(F)cc5)C[C@]4(C)C3CC[C@@]21C (stereo not given in full)
[3]
  Ratio IC50: 11
[4]
  IC50: 0.42 µM
[5]
  Ki: 0.26 µM

## Cc1cc2c(c(=O)[nH]1)C(=O)O/C2=C\c1cc(Br)cs1
[6]
  IC50: 0.24 µM
[7]
  Kdiss: 0.25 µM
[8]
  Kdiss: 0.22 µM

## O=C1NC(=O)[C@@]2(CCOc3ccc(F)cc32)N1 [SORBINIL]
[9]
  IC50: 0.0031 µM

## CSc1ccc(COc2ccc(-c3ncc(C)c(N4CCN(c5ncc(OCC=C(C)C)cn5)CC4)n3)cc2)cc1
[10]
  EC50: 0.024 µM

## NNc1nc(NN)nc(N2C(=O)CSC2=O)n1
[11]
  IC50: 6.25 µM

## O=c1[nH]ncn1-c1ccc(-c2ccc(N3CCNCC3)nc2)cc1
[12]
  EC50: 0.0028 µM

## CC#CCn1c(N2CCC[C@@H](N)C2)nc2c(C)c(=O)n(Cc3nc(C)c4c(Cl)cccc4n3)c(=O)n21
[13]
  IC50: 0.0007 µM

## O=C(c1cccc(CN2CCCN(Cc3cccc(C(=O)C(F)(F)P(=O)(O)O)c3)CCN(Cc3cccc(C(=O)C(F)(F)P(=O)(O)O)c3)CCCN(Cc3cccc(C(=O)C(F)(F)P(=O)(O)O)c3)CC2)c1)C(F)(F)P(=O)(O)O
[14]
  Ratio IC50: 14
[15]
  IC50: 0.075 µM

## CCCCNCn1nc(-c2cc3ccccc3oc2=O)oc1=S
[16]
  IC50: 3.36 µM
[2]
  IC50: 0.31 µM

## CC#CCn1c(N2CCC[C@@H](N)C2)cc(=O)n(Cc2nc(C)c3cc(C)ccc3n2)c1=O
[13]
  IC50: 0.00578 µM

## Nc1cc(Cl)ccc1/C(=N/Nc1nc(-c2cc3ccccc3oc2=O)cs1)c1ccccc1
[16]
  IC50: 0.459 µM
[2]
  IC50: 0.11 µM

## CC#CCn1c(N2CCC[C@@H](N)C2)nc2c(C)c(=O)n(Cc3nc(C)c4c(F)cccc4n3)c(=O)n21
[13]
  IC50: 0.0005 µM

## O=C(O)[C@H]1C[C@@H]1CCC12CCC(c3cccc(Oc4ccccc4)c3)(CC1)O2
[17]
  Activity: 60%
[18]
  EC50: 0.22 µM

## CCCC(CCC)C(=O)O [VALPROIC ACID]
[16]
  IC50: 57.4 µM

## O=C(CNc1nc(Nc2ccc(S(=O)(=O)Nc3nccs3)cc2)nc(N2CCOCC2)n1)Nc1ccc(F)cc1
[19]
  IC50: 0.00232 µM

## COc1cc(/C=C2\SC(=S)N(Cc3ccc(C(=O)O)cc3)C2=O)ccc1OCc1ccccc1
[20]
  IC50: 3.5 µM
[3]
  Ratio IC50: 2
[1]
  IC50: 1.1 µM

## COc1cc(N2CCC(Oc3ccc(N4N=C(C(F)(F)F)[C@@H](C)C4CC(=O)O)cc3)[C@H](N)C2)c(Cl)cn1 (stereo not given in full)
[21]
  EC50: 0.071 µM

## O=c1c2cc(O)c(O)cc2oc2cc(O)cc(O)c12
[1]
  IC50: 9.2 µM

## Cc1cc(OCc2ccc(C(=O)O)cc2)ccc1/C=C1\SC(=S)N(Cc2ccc(C(=O)O)cc2)C1=O
[1]
  IC50: 0.24 µM

## Cc1ccc(N2C(=O)/C(=C/c3cn(-c4ccccc4)nc3-c3ccc([N+](=O)[O-])cc3)SC2=S)cc1
[9]
  IC50: 2.34 µM

## Cc1ccc(-c2nnc(-c3cccc(NC(=O)CCCCCCO)c3)o2)cc1
[22]
  IC50: 1.32 µM

## Cc1ccc(-c2nnc(-c3cccc(NC(=O)CCCCO)c3)o2)cc1
[22]
  IC50: 5.61 µM

## Cc1ccc(-c2nn(-c3ccccc3)cc2/C=C2\SC(=S)N(c3cccc(Br)c3)C2=O)cc1
[9]
  IC50: 1.22 µM
